From the supplement of paper PMC4954754
± gives the uncertainty stated by the source.

What follows are compounds tested on HEK293T-Rex XBP1-RLuc (assay: maximal XBP1-RLuc activation from dose-response fit, relative to thapsigargin (% of thapsigargin); higher = stronger activation). Settings: 18 h.
Experimental: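 Dose-response of hit compounds in HEK293T-Rex cells stably expressing ERSE-FLuc or XBP1-RLuc reporters, 18 hr treatment, 1536-well; luminescence normalised to 500 nM thapsigargin (100%) and DMSO (0%), fitted to give EC50 (M) and maximal activation; '>' marks EC50 above the top tested dose (~17 µM).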

Going from `Cc1nn(-c2ccc(F)cc2)c2ncc(C(=O)NCc3ccco3)c(Cl)c12` to `Cc1ccc(/C=N/NC(=O)c2cccc(F)c2)cc1`, the “maximal XBP1-RLuc activation” value falls from 151 ± 6.8 to 1.93 ± 2.

First: COCCNC(=O)c1cc(-c2cccs2)on1
Second: COc1ccc(C(=O)Nc2nnc(-c3cccs3)s2)cc1
The “maximal XBP1-RLuc activation” value of the first is higher: 9.6 ± 3.2 for the first, 1.9 ± 0.9 for the second.

First: CCOc1cc(C2C(C(=O)OC3CCCCC3)=C(C)NC3=C2C(=O)CC(c2ccc(OC)cc2)C3)cc(Br)c1O (stereo not drawn)
Second: COc1cccc(C2=NOC(C(=O)Nc3cc(C)ccc3O)C2)c1 (stereo not drawn)
The “maximal XBP1-RLuc activation” value of the first is higher: 88.6 ± 10 for the first, 35.1 ± 3 for the second.

Compared with `Oc1ccc(-c2csc(-c3cccnc3)n2)cc1O`, `N#C/C(=C\c1ccc(O)c(O)c1)C(=O)Nc1ccccc1` is lower in “maximal XBP1-RLuc activation” value: 80.1 ± 5.1 for the first, 21.5 ± 0.57 for the second.

Going from `Oc1cccc(/C=N/Nc2ccc(Cl)nn2)c1O` to `Cc1ccc(/C=N/NC(=O)c2cccc(Cl)c2)cc1`, the “maximal XBP1-RLuc activation” value falls from 19.4 ± 1 to 3.19 ± 1.2.

Compared with `CCN1C(=O)/C(=C\c2ccc(O)cc2O)SC1=S`, `NN1C(=O)/C(=C/c2ccc(O)c(O)c2)SC1=S` is higher in “maximal XBP1-RLuc activation” value: 13.3 ± 1.5 for the first, 33.2 ± 4.3 for the second.

First: COc1ccc(-n2nnnc2SCC(N)=O)c(OC)c1
Second: COc1cccc(C(=O)Nc2nc3ccc(C)cc3s2)c1
The “maximal XBP1-RLuc activation” value of the first is lower: 1.34 ± 2.6 for the first, 10.2 ± 2.3 for the second.

`CCOc1ccc(NC(=O)c2cccc(F)c2)c([N+](=O)[O-])c1` and `CCOc1ccc(NC(=O)c2ccc3c(c2)OCO3)c([N+](=O)[O-])c1` are within error of each other in “maximal XBP1-RLuc activation” value: 2.67 ± 1.8 for the first, 0.524 ± 1.2 for the second.

`CC(C)CC(c1nnnn1C1CCCC1)N1CCN(C(=O)c2ccco2)CC1` (stereo not drawn) and `CCc1ccc(NC(=O)/C=C/c2ccco2)cc1` are within error of each other in “maximal XBP1-RLuc activation” value: 8.89 ± 0.66 for the first, 4.4 ± 8.8 for the second.

Going from `O=C(COC(=O)c1cc(O)c(O)c(O)c1)Nc1ccc(Br)cc1F` to `NC(=O)c1c(NC(=O)COc2ccccc2)sc2c1CCC2`, the “maximal XBP1-RLuc activation” value falls from 26.4 ± 2.7 to 2.55 ± 0.7.

Going from `O=[N+]([O-])c1ccc(/C=C/c2ccc(O)cc2)cc1` to `O=C1N/C(=C\c2ccc(O)cc2)C(O)=C1C=NCc1ccccc1`, the “maximal XBP1-RLuc activation” value rises from 53.3 ± 4.7 to 74.2 ± 4.9.

Compared with `Cc1ccc(O)c(N/C=C/C(=O)c2cccs2)c1`, `Cc1ccc(O)c(N=CC2=C(O)c3ccccc3C2=O)c1` is lower in “maximal XBP1-RLuc activation” value: 56.5 ± 2.8 for the first, 35.5 ± 4.2 for the second.

Compared with `CN(C)c1ccc(C2C(C#N)=C(N)Oc3c2sc2ccccc32)cc1[N+](=O)[O-]` (stereo not drawn), `COc1ccccc1-c1nnc(Nc2nc3c(OC)cccc3s2)o1` is higher in “maximal XBP1-RLuc activation” value: 4.37 ± 1 for the first, 12.5 ± 1 for the second.

`N#Cc1c(NC(=O)c2cnccn2)sc2c1CCCC2` and `N#Cc1c(NC(=O)c2cccc(F)c2)sc2c1CCC2` are within error of each other in “maximal XBP1-RLuc activation” value: 4.67 ± 1.1 for the first, 2.22 ± 1.6 for the second.

First: C/C(=N\NC(=O)c1n[nH]c2c1CCCC2)c1ccc2ccccc2c1
Second: N#Cc1c(NC(=O)c2ccc3ncsc3c2)sc2c1CCC2
The “maximal XBP1-RLuc activation” value of the first is higher: 8.52 ± 1 for the first, 4.53 ± 1.1 for the second.

`COc1ccccc1/C=N/Nc1nc(-c2ccccc2)cc(=O)[nH]1` and `COc1ccc(NC(=O)/C(Cl)=C\c2ccccc2)cc1` are within error of each other in “maximal XBP1-RLuc activation” value: 5.2 ± 9.3 for the first, 4.41 ± 5 for the second.

Compared with `Cc1ccc(/C=C(\C#N)C(=O)Nc2cccc(Cl)c2)o1`, `CC(=O)Nc1ccc2nc(-c3ccc(OC(C)=O)cc3)sc2c1` is higher in “maximal XBP1-RLuc activation” value: 3.54 ± 1.9 for the first, 67 ± 2.2 for the second.

First: Cc1cc(C)nc(/N=C(\N)Nc2ccc(OCCC(C)C)cc2)n1
Second: COc1cccc(/C=N/NC(=O)c2ccc(NC(=O)c3ccc(C)cc3)cc2)c1O
The “maximal XBP1-RLuc activation” value of the first is higher: 89.1 ± 9.1 for the first, 1.01 ± 1.2 for the second.

Going from `Cn1cccc1/C=C1/SC(=Nc2ccccc2)NC1=O` to `O=C1NC(=Nc2ccc(F)cc2)S/C1=C\c1ccc(O)c(O)c1`, the “maximal XBP1-RLuc activation” value rises from 18.6 ± 6.5 to 55.3 ± 2.5.

Compared with `Oc1ccc(-c2cnc3c(Nc4ccc5[nH]ccc5c4)nccn23)cc1`, `CCCNC(=O)c1ccc2nc(-c3ccc4[nH]ccc4c3)sc2c1` is lower in “maximal XBP1-RLuc activation” value: 37.8 ± 9.5 for the first, 2.49 ± 1.2 for the second.

First: CNC(=O)c1ccccc1Nc1cc(NC(=O)Cc2ccc(F)c(F)c2)ncc1C(F)(F)F
Second: CC1(C)Cc2ccccc2/C(=C/C(=O)C(=O)N/N=C/c2ccc(O)c(O)c2)N1
The “maximal XBP1-RLuc activation” value of the first is lower: 2.4 ± 1.1 for the first, 54.9 ± 3.4 for the second.

In the case of `COC(=O)c1ccc2c(COC(C)=O)c(OC(C)=O)ccc2c1COC(C)=O`, the “maximal XBP1-RLuc activation” value is reported as 19.2 ± 4.8.
